Test results from US11414404B2, “Compounds for the treatment of BRAF-associated diseases and disorders” (Array BioPharma Inc., priority 2019, dated 2022).
Where a name gives a salt, the structure may show the parent alone.

What was measured:
[1] = molecular target: full-length FLAG-tagged B-Raf(V600E) (Homo sapiens (Human), UniProt P15056, V600E); test: BRAF V600E enzyme assay (TR-FRET competitive displacement of fluorescent tracer); assay type: binding; settings: averaged IC50; 60 min at ambient temperature; 11-point dosing, top dose 10 μM
From the text: A competitive displacement assay was configured for B-Raf that monitors the amount of a fluorescently-tagged “tracer” bound to B-Raf via TR-FRET from an anti-tag Eu-labeled antibody also bound to B-Raf.
[formula] • where: • Xmax Average Uninhibited Controls • Xmin Average Background
A 4-parameter logistic model was the fit to the POC data for each compound.

BCRP = BCRP (Homo sapiens (Human), UniProt Q9UNQ0); test: BCRP MDCKII permeability assay: efflux ratio; settings: dog
Experimental: (§1) BCRP transfected MDCKII cells were cultured and plated according to manufacturer's recommendations. Assay conditions included with and without the BCRP-specific inhibitor, K0143, at a concentration of 0.3 μM to ascertain the contribution of BCRP to the efflux value of the test compound.
(§2) Both positive and negative controls were used to assess functionality of P-gp or BCRP efflux in the assays. […] Final organic concentration in the assay was 1%. All dosing solutions contained 10 μM lucifer yellow to monitor LLC-PK1 or MDCKII cell monolayer integrity.
(§3) For the apical to basolateral determination (A to B), 75 μL of the test article in transport buffer were added to the apical side of the individual transwells and 250 μL of basolateral media, without compound or lucifer yellow, were added to each well. For the basolateral to apical determination (B to A), 250 μL of test article in transport buffer were added to each well and 75 μL transport buffer, without compound or lucifer yellow, were added to each transwell. All tests were performed in triplicate, and each compound was tested for both apical to basolateral and basolateral to apical transport. The plates were incubated for 2 hours on a Lab-Line Instruments Titer Orbital Shaker (VWR, West Chester, Pa.) at 50 rpm and 37° C. with 5% CO2. All culture plates were removed from the incubator and 50 μL of media were removed from the apical and basolateral portion of each well and added to 150 μL of 1 μM labetalol in 2:1 acetonitrile (acetonitrile): H2O, v/v.
(§4) These values were accepted when found to be below 2% for apical to basolateral and 5% basolateral to apical flux across the MDR1-transfected LLC-PK1 or BCRP-transfected MDCKII cell monolayers. The plates were sealed and the contents of each well analyzed by LC-MS/MS. The compound concentrations were determined from the ratio of the peak areas of the compound to the internal standard (labetalol) in comparison to the dosing solution.
(§5) The LC-MS/MS system was comprised of an HTS-PAL autosampler (Leap Technologies, Carrboro, N.C.), an HP1200 HPLC (Agilent, Palo Alto, Calif.), and a MDS Sciex 4000 Q Trap system (Applied Biosystems, Foster City, Calif.). […] The total run time, including re-equilibration, for a single injection was 1.2 minutes. Mass spectrometric detection of the analytes was accomplished using the ion spray positive mode.
An efflux ratio is calculated from the mean apical to basolateral (A−B) Papp data and basolateral to apical (B−A) Papp data: Efflux ratio=Papp(B−A)/Papp(A−B)

P-gp (MDR1) = P-gp (MDR1) (Homo sapiens (Human), UniProt P08183); test: MDR1 LLC-PK1 permeability assay: efflux ratio; settings: pig, LLC-PK1
[2] = MDR1 LLC-PK1 and BCRP MDCKII permeability assay: permeability coefficient (Papp)
Experimental: Both LLC-PK1 and MDR1 transfected LLC-PK1 cells were cultured and plated according to manufacturer's recommendations with the exception that the passage media contained only 2% fetal bovine serum to extend passage time out to seven days.
as §1, §2, §3, §4, §5
where Cd, V, t and C0 are the detected concentration (μM), the volume on the dosing side (mL); the incubation time (s) and the initial dosing concentration (μM), respectively. The calculations for Papp were made for each replicate and then averaged.

Sequence of full-length FLAG-tagged B-Raf(V600E) (P15056 whole entry V600E): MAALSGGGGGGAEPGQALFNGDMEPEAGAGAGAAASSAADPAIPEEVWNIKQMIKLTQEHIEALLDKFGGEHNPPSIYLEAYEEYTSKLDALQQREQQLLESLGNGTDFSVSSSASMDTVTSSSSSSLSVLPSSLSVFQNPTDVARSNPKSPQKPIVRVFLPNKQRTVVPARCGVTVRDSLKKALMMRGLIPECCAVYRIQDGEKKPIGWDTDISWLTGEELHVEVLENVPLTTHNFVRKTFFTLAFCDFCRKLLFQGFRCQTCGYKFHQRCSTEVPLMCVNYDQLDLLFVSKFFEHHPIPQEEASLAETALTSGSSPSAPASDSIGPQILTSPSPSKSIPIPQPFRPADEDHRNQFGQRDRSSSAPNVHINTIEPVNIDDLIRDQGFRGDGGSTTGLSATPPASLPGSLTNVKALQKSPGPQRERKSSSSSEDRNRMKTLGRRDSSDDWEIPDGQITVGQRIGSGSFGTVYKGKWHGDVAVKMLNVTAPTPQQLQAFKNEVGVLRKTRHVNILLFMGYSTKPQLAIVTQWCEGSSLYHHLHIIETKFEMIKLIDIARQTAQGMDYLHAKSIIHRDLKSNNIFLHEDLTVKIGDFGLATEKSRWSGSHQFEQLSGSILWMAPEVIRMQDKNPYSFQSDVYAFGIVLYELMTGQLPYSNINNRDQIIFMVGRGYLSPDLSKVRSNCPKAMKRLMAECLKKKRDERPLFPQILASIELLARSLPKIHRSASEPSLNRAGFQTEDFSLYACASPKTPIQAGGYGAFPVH
Sequence of P-gp (MDR1) (P08183 whole entry, species assumed): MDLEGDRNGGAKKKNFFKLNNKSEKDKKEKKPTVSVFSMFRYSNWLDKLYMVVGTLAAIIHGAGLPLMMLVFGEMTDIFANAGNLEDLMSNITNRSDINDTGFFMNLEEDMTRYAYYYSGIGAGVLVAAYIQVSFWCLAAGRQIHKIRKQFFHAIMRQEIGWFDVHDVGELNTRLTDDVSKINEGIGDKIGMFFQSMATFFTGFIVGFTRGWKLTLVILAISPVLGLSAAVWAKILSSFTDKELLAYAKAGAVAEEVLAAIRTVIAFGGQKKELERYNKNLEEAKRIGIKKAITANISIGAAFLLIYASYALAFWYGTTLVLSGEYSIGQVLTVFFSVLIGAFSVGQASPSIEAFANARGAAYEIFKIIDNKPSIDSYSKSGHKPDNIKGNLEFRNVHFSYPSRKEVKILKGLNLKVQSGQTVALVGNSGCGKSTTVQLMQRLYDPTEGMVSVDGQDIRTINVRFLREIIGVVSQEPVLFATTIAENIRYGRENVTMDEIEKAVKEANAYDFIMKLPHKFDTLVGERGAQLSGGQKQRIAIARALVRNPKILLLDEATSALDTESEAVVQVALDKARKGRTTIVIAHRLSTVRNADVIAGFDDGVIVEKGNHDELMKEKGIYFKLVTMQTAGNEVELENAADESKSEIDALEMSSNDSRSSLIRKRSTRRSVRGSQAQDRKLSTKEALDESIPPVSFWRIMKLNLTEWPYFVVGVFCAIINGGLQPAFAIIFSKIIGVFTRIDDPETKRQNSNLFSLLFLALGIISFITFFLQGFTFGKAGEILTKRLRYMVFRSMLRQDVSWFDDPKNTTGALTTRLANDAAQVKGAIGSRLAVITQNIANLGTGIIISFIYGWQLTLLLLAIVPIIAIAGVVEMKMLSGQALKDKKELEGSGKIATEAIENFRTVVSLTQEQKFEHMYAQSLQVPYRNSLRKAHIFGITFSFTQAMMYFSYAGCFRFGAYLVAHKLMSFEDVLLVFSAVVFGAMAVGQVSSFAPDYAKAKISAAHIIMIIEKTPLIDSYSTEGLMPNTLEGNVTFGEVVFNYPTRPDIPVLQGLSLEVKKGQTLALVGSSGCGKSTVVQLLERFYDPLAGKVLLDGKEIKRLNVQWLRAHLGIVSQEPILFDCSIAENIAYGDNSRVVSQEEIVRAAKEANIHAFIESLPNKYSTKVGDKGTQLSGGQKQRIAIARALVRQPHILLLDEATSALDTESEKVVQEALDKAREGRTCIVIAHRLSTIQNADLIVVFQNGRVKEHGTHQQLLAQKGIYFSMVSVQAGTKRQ
Sequence of BCRP (Q9UNQ0 whole entry, species assumed): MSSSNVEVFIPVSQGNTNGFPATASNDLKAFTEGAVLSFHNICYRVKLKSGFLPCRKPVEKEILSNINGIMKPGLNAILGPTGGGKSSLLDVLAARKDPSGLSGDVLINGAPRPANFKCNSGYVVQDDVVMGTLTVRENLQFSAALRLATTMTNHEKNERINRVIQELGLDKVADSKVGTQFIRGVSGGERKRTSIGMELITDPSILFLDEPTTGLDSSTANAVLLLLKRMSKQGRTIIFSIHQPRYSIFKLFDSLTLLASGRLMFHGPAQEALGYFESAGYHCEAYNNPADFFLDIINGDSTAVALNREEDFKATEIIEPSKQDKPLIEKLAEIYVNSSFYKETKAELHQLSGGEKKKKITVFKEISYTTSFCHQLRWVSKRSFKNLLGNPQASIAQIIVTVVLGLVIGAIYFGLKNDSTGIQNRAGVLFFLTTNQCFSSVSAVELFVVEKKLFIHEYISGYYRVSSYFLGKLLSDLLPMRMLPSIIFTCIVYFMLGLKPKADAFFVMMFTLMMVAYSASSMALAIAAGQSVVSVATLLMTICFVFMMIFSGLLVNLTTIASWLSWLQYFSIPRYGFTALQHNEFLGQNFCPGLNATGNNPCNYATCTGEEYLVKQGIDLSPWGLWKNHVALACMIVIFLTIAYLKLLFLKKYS

SMILES	IC50 [1]	efflux ratio at 2 h, 1 µM (BCRP)	efflux ratio at 2 h, 1 µM (P-gp (MDR1))	Papp at 2 h, 1 µM [2]
COCCS(=O)(=O)Nc1ccc(F)c(Nc2ccc3ncn(C)c(=O)c3c2C)c1Cl [Example 27, N-(2-chloro-3-((3,5-dimethyl-4-oxo-3,4-dihydroquinazolin-6-yl)amino)-4-fluorophenyl)-2-methoxyethane-1-sulfonamide]	207 nM	2.09	1.4	34.5 ×10⁻⁶ cm/s
CCCS(=O)(=O)Nc1ccc(F)c(Nc2ccc3ncn(C)c(=O)c3c2C)c1C#N [Example 28, N-(2-cyano-3-((3,5-dimethyl-4-oxo-3,4-dihydroquinazolin-6-yl)amino)-4-fluorophenyl)propane-1-sulfonamide]	2 nM	33	6.46	26.8 ×10⁻⁶ cm/s
CCCS(=O)(=O)Nc1ccc(F)c(Nc2ccc3ncn(Cc4ccccc4)c(=O)c3c2C)c1Cl [Example 29, N-(3-((3-benzyl-5-methyl-4-oxo-3,4-dihydroquinazolin-6-yl)amino)-2-chloro-4-fluorophenyl)propane-1-sulfonamide]	174 nM	0.87	1.61	12 ×10⁻⁶ cm/s
CCCS(=O)(=O)Nc1ccc(F)c(Nc2ccc3ncn(CCOC)c(=O)c3c2C)c1Cl [Example 30, N-(2-chloro-4-fluoro-3-((3-(2-methoxyethyl)-5-methyl-4-oxo-3,4-dihydroquinazolin-6-yl)amino)phenyl)propane-1-sulfonamide]	45.5 nM	1.92	2.59	24.8 ×10⁻⁶ cm/s
CCCS(=O)(=O)Nc1ccc(F)c(Nc2ccc3ncn(C4CC4)c(=O)c3c2C)c1Cl [Example 31, N-(2-chloro-3-((3-cyclopropyl-5-methyl-4-oxo-3,4-dihydroquinazolin-6-yl)amino)-4-fluorophenyl)propane-1-sulfonamide trifluoroacetate]	25.1 nM	1.64	1.59	24.5 ×10⁻⁶ cm/s
CCCS(=O)(=O)Nc1ccc(F)c(Nc2ccc3ncn(-c4ccccc4)c(=O)c3c2C)c1Cl [Example 32, N-(2-chloro-4-fluoro-3-((5-methyl-4-oxo-3-phenyl-3,4-dihydroquinazolin-6-yl)amino)phenyl)propane-1-sulfonamide trifluoroacetate]	92.7 nM	1	0.86	15.6 ×10⁻⁶ cm/s
CCCS(=O)(=O)Nc1ccc(F)c(Nc2ccc3ncn(C4CCC4)c(=O)c3c2C)c1Cl [Example 33, N-(2-chloro-3-((3-cyclobutyl-5-methyl-4-oxo-3,4-dihydroquinazolin-6-yl)amino)-4-fluorophenyl)propane-1-sulfonamide trifluoroacetate]	24 nM	1.33	1.2	21.9 ×10⁻⁶ cm/s
CCCS(=O)(=O)Nc1ccc(F)c(Nc2ccc3ncn([C@@H]4CCOC4)c(=O)c3c2C)c1Cl [Example 34, (R)-N-(2-chloro-4-fluoro-3-((5-methyl-4-oxo-3-(tetrahydrofuran-3-yl)-3,4-dihydroquinazolin-6-yl)amino)phenyl)propane-1-sulfonamide trifluoroacetate]	8.9 nM	2.19	1.81	27.7 ×10⁻⁶ cm/s
CCCS(=O)(=O)Nc1ccc(F)c(Nc2ccc3ncn([C@H]4CCOC4)c(=O)c3c2C)c1Cl [Example 35, (S)-N-(2-chloro-4-fluoro-3-((5-methyl-4-oxo-3-(tetrahydrofuran-3-yl)-3,4-dihydroquinazolin-6-yl)amino)phenyl)propane-1-sulfonamide trifluoroacetate]	24.5 nM	1.78	1.92	29.4 ×10⁻⁶ cm/s
CCCS(=O)(=O)Nc1ccc(F)c(Nc2ccc3ncn(CC)c(=O)c3c2C)c1Cl [Example 37, N-(2-chloro-3-((3-ethyl-5-methyl-4-oxo-3,4-dihydroquinazolin-6-yl)amino)-4-fluorophenyl)propane-1-sulfonamide trifluoroacetate]	5.5 nM	0.87	0.94	29.9 ×10⁻⁶ cm/s
CCCS(=O)(=O)Nc1ccc(F)c(Nc2ccc3ncn(CC4CC4)c(=O)c3c2C)c1Cl [Example 38, N-(2-chloro-3-((3-(cyclopropylmethyl)-5-methyl-4-oxo-3,4-dihydroquinazolin-6-yl)amino)-4-fluorophenyl)propane-1-sulfonamide]	28.3 nM	1.57	1.15	20.6 ×10⁻⁶ cm/s
CCCS(=O)(=O)Nc1ccc(F)c(Nc2ccc3ncn(C4CCCC4)c(=O)c3c2C)c1Cl [Example 39, N-(2-chloro-3-((3-cyclopentyl-5-methyl-4-oxo-3,4-dihydroquinazolin-6-yl)amino)-4-fluorophenyl)propane-1-sulfonamide trifluoroacetate]	52.6 nM	1.33	1.29	14.2 ×10⁻⁶ cm/s
CCCS(=O)(=O)Nc1ccc(Cl)c(Nc2ccc3ncn(C)c(=O)c3c2C)c1F [Example 40, N-(4-chloro-3-((3,5-dimethyl-4-oxo-3,4-dihydroquinazolin-6-yl)amino)-2-fluorophenyl)propane-1-sulfonamide]	43.9 nM	2.87	2.2	28.7 ×10⁻⁶ cm/s
CCCS(=O)(=O)Nc1ccc(F)c(Nc2ccc3ncn(C)c(=O)c3c2C)c1C [Example 41, N-(3-((3,5-dimethyl-4-oxo-3,4-dihydroquinazolin-6-yl)amino)-4-fluoro-2-methylphenyl)propane-1-sulfonamide]	2820 nM	3.28	2.79	29.8 ×10⁻⁶ cm/s
Cc1c(Nc2cc(F)cc(NS(=O)(=O)CCCF)c2Cl)ccc2ncn(C)c(=O)c12 [Example 44, N-(2-chloro-3-((3,5-dimethyl-4-oxo-3,4-dihydroquinazolin-6-yl)amino)-5-fluorophenyl)-3-fluoropropane-1-sulfonamide]	6.05 nM	2.84	1.05	24.2 ×10⁻⁶ cm/s
Cc1c(Nc2c(F)ccc(NS(=O)(=O)c3ccccc3)c2Cl)ccc2ncn(C)c(=O)c12 [Example 49, N-(2-chloro-3-((3,5-dimethyl-4-oxo-3,4-dihydroquinazolin-6-yl)amino)-4-fluorophenyl)benzenesulfonamide]	3.95 nM	0.97	1.24	30.7 ×10⁻⁶ cm/s
CCCS(=O)(=O)Nc1ccc(F)c(Nc2ccc3ncn(-c4cccnc4)c(=O)c3c2C)c1Cl [Example 58, N-(2-chloro-4-fluoro-3-((5-methyl-4-oxo-3-(pyridin-3-yl)-3,4-dihydroquinazolin-6-yl)amino)phenyl)propane-1-sulfonamide]	35.5 nM	1.93	2.26	27.6 ×10⁻⁶ cm/s
CCCS(=O)(=O)Nc1ccc(F)c(Nc2ccc3ncn(CC(F)(F)F)c(=O)c3c2C)c1Cl [Example 59, N-(2-chloro-4-fluoro-3-((5-methyl-4-oxo-3-(2,2,2-trifluoroethyl)-3,4-dihydroquinazolin-6-yl)amino)phenyl)propane-1-sulfonamide]	3.4 nM	1.08	1.36	25.1 ×10⁻⁶ cm/s
C#Cc1c(Nc2c(F)ccc(NS(=O)(=O)CCC)c2Cl)ccc2ncn(C)c(=O)c12 [Example 60, N-(2-chloro-3-((5-ethynyl-3-methyl-4-oxo-3,4-dihydroquinazolin-6-yl)amino)-4-fluorophenyl)propane-1-sulfonamide]	9.25 nM	2.35	2.3	29 ×10⁻⁶ cm/s
CCC(C)S(=O)(=O)Nc1ccc(F)c(Nc2ccc3ncn(C)c(=O)c3c2C)c1Cl (centres unmarked) [Example 61, N-(2-chloro-3-((3,5-dimethyl-4-oxo-3,4-dihydroquinazolin-6-yl)amino)-4-fluorophenyl)butane-2-sulfonamide]	97.7 nM	0.84	1.2	26.6 ×10⁻⁶ cm/s
CCCS(=O)(=O)Nc1ncc(F)c(Oc2ccc3ncn(C)c(=O)c3c2C)c1F [Example 62, N-(4-((3,5-dimethyl-4-oxo-3,4-dihydroquinazolin-6-yl)oxy)-3,5-difluoropyridin-2-yl)propane-1-sulfonamide]	15.8 nM	22.5	2.3	26.3 ×10⁻⁶ cm/s
Cc1c(Oc2c(F)cnc(NS(=O)(=O)CCCF)c2F)ccc2ncn(C)c(=O)c12 [Example 64, N-(4-((3,5-dimethyl-4-oxo-3,4-dihydroquinazolin-6-yl)oxy)-3,5-difluoropyridin-2-yl)-3-fluoropropane-1-sulfonamide]	10.4 nM	31	10.9	9.78 ×10⁻⁶ cm/s
CCCS(=O)(=O)Nc1ccc(F)c(Sc2ccc3ncn(C)c(=O)c3c2C)c1Cl [Example 65, N-(2-chloro-3-((3,5-dimethyl-4-oxo-3,4-dihydroquinazolin-6-yl)thio)-4-fluorophenyl)propane-1-sulfonamide]	92.4 nM	0.9	1.4	177 ×10⁻⁶ cm/s
